Data set [1] concerns the target TSPO (T/T rs6971 genotype) (Homo sapiens, UniProt P30536). Description: [3H]-DPA-713 dissociation kinetics, platelet lysates, T/T genotype. The data set is classed as binding. Particulars: PK11195 5 μM, cholesterol 1.2 μM.
The test system of data set [2] is TSPO (C/T rs6971 genotype). Description: [3H]-DPA-713 dissociation kinetics, platelet lysates, C/T genotype. The class given is binding, human. Conditions: for effect on rate of dissociation of [3H]-DPA-713 vs. excess DPA-713: PK11195 5 μM, cholesterol 1.2 μM.
For data set [3] the following is noted: ref Vivash and O'Brien 2016; cited from earlier work.
For data set [4], the target named is TSPO (C/C rs6971 genotype) (Homo sapiens, UniProt P30536). As to the kind of experiment: [3H]-DPA-713 dissociation kinetics, platelet lysates, C/C genotype. The class given is binding. Conditions: PK11195 5 μM, cholesterol 1.2 μM.
TSPO (C/C rs6971 genotype), sequence (P30536 whole entry): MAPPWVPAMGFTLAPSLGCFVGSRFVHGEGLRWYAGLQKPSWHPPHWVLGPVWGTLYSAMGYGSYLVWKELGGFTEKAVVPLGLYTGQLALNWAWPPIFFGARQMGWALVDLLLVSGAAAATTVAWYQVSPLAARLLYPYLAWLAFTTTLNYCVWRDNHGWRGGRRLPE

Data on three compounds can be found in article PMC5790609 (Journal of neuroimmune pharmacology : the official journal …, 2017).

TSPO (T/T rs6971 genotype), sequence (P30536 2-169): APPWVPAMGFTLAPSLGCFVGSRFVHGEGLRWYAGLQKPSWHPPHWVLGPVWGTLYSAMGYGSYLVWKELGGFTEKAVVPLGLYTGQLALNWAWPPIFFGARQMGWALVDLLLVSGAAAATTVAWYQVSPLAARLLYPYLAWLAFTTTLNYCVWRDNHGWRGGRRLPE

For the compound `CCC(C)N(C)C(=O)c1cc2ccccc2c(-c2ccccc2Cl)n1` (centres unmarked) [PK11195], the “effect on rate of dissociation of [3H]-DPA-713 vs. excess DPA-713” value is recorded as “accelerated” in data set [1], “the same” in data set [2] and “the same” in data set [4]. The “non-specific plasma protein binding” value in data set [3] is given as “high”.

For `CCN(CC)C(=O)Cc1c(-c2ccc(OC)cc2)nn2c(C)cc(C)nc12` [DPA-713], the “dissociation rates of [3H]-DPA-713 with 2 vs. 12 μM DPA-713” value in data set [2] was “the same”.

On to `CC(C)CCC[C@@H](C)[C@H]1CC[C@H]2[C@@H]3CC=C4C[C@@H](O)CC[C@]4(C)[C@H]3CC[C@]12C` [cholesterol], for which the entries for the “effect on rate of dissociation of [3H]-DPA-713 vs. excess DPA-713” value in data set [1], in data set [2] and in data set [4] were “accelerated”, “the same” and “the same”, respectively.
